Reference: patent US8927717B1, “Thiochromeno[2,3-c]quinolin-12-one derivatives, preparation method and application thereof” (National Defense Medical Center, priority 2014, dated 2015)

What was measured:
Type in all cases: cell-based
HL-60(TB) = settings: HL-60(TB); 10^−5 molar
K-562 = settings: K-562; 10^−5 molar
MOLT-4 = settings: MOLT-4; 10^−5 molar
RPMI-8226 = settings: RPMI-8226; 10^−5 molar
SR = settings: SR; 10^−5 molar
HOP-62 = settings: HOP-62; 10^−5 molar
NCI-H226 = settings: NCI-H226; 10^−5 molar
NCI-H23 = settings: NCI-H23; 10^−5 molar
NCI-H460 = settings: NCI-H460; 10^−5 molar
NCI-H522 = settings: NCI-H522; 10^−5 molar
COLO 205 = settings: COLO 205; 10^−5 molar
HCT-116 = settings: HCT-116; 10^−5 molar
HT29 = settings: HT29; 10^−5 molar
KM12 = test: cells; settings: KM12; 10^−5 molar
SW-620 = settings: SW-620; 10^−5 molar
SF-268 = settings: SF-268; 10^−5 molar
SNB-19 = settings: SNB-19; 10^−5 molar
U251 = settings: U251; 10^−5 molar
LOX IMVI = settings: LOX IMVI; 10^−5 molar
MALME-3M = settings: MALME-3M; 10^−5 molar
M14 = settings: M14; 10^−5 molar
MDA-MB-435 = settings: MDA-MB-435; 10^−5 molar
SK-MEL-28 = settings: SK-MEL-28; 10^−5 molar
SK-MEL-5 = settings: SK-MEL-5; 10^−5 molar
UACC-62 = settings: UACC-62; 10^−5 molar
OVCAR-8 = settings: OVCAR-8; 10^−5 molar
NCI/ADR-RES = settings: NCI/ADR-RES; 10^−5 molar
SK-OV-3 = settings: SK-OV-3; 10^−5 molar
786-0 = settings: 786-0; 10^−5 molar
A498 = settings: A498; 10^−5 molar
ACHN = settings: ACHN; 10^−5 molar
RXF 393 = settings: RXF 393; 10^−5 molar
TK-10 = settings: TK-10; 10^−5 molar
PC-3 = settings: PC-3; 10^−5 molar
MCF7 = settings: MCF7; 10^−5 molar
MDA-MB-231/ATCC = settings: MDA-MB-231/ATCC; 10^−5 molar
T-47D = settings: T-47D; 10^−5 molar
MDA-MB-486 = settings: MDA-MB-486; 10^−5 molar
60 cancer cell lines = test: NCI 60-cell screen, SRB, whole panel (mean, delta, range); settings: 10^−5 molar; for Growth percent, Delta: delta over panel; for Growth percent, Mean: mean over panel; for Growth percent, Range: range over panel

Which Growth percent (HL-60(TB)) does the source give for `O=c1c2cc(Cl)ccc2sc2c(NCCN3CCOCC3)nc3ccccc3c12` [Compound N16, 10-Chloro-6-((2-morpholinoethyl)amino)-12H-thiochromeno[2,3-c]quinolin-12-one] here?
The Growth percent was 104.97%.

What about the Growth percent (K-562) of the same compound?
Its Growth percent is 17.67%.

And the Growth percent (MOLT-4)?
Its Growth percent is 80.91%.

And the Growth percent (RPMI-8226)?
Its Growth percent is 92.20%.

And the Growth percent (SR)?
Its Growth percent is 67.74%.

And the Growth percent (HOP-62)?
The Growth percent was 67.97%.

And the Growth percent (NCI-H226)?
The Growth percent was 94.09%.

And the Growth percent (NCI-H23)?
The Growth percent was 83.07%.

What about the Growth percent (NCI-H460) of the same compound?
The Growth percent was 100.49%.

What about the Growth percent (NCI-H522) of the same compound?
The Growth percent was 76.66%.

What about the Growth percent (COLO 205) of the same compound?
Its Growth percent is 79.39%.

What about the Growth percent (HCT-116) of the same compound?
The Growth percent was 81.64%.

What about the Growth percent (HT29) of the same compound?
Its Growth percent is 43.13%.

What about the Growth percent (KM12) of the same compound?
Its Growth percent is 68.16%.

What about the Growth percent (SW-620) of the same compound?
The Growth percent was 99.65%.

And the Growth percent (SF-268)?
The Growth percent was 79.49%.

What about the Growth percent (SNB-19) of the same compound?
Its Growth percent is 90.44%.

And the Growth percent (U251)?
Its Growth percent is 76.34%.

What about the Growth percent (LOX IMVI) of the same compound?
The Growth percent was 67.43%.

What about the Growth percent (MALME-3M) of the same compound?
Its Growth percent is 78.79%.

What about the Growth percent (M14) of the same compound?
Its Growth percent is 99.59%.

What about the Growth percent (MDA-MB-435) of the same compound?
The Growth percent was 98.93%.

What about the Growth percent (SK-MEL-28) of the same compound?
The Growth percent was 98.56%.

And the Growth percent (SK-MEL-5)?
The Growth percent was 91.61%.

And the Growth percent (UACC-62)?
Its Growth percent is 94.58%.

And the Growth percent (OVCAR-8)?
The Growth percent was 92.43%.

What about the Growth percent (NCI/ADR-RES) of the same compound?
Its Growth percent is 77.03%.

And the Growth percent (SK-OV-3)?
Its Growth percent is 85.34%.

And the Growth percent (786-0)?
Its Growth percent is 83.16%.

And the Growth percent (A498)?
The Growth percent was 80.54%.

And the Growth percent (ACHN)?
The Growth percent was 91.61%.

And the Growth percent (RXF 393)?
The Growth percent was 93.21%.

What about the Growth percent (TK-10) of the same compound?
The Growth percent was 76.67%.

What about the Growth percent (PC-3) of the same compound?
Its Growth percent is 67.82%.

What about the Growth percent (MCF7) of the same compound?
The Growth percent was 51.69%.

And the Growth percent (MDA-MB-231/ATCC)?
The Growth percent was 59.20%.

What about the Growth percent (T-47D) of the same compound?
The Growth percent was 47.63%.

And the Growth percent (MDA-MB-486)?
The Growth percent was 74.34%.

And the “Growth percent, Delta” value (60 cancer cell lines)?
The value was 62.71%.

And the “Growth percent, Mean” value (60 cancer cell lines)?
The value was 80.38%.

And the “Growth percent, Range” value (60 cancer cell lines)?
The value was 88.85%.

Which Growth percent (HL-60(TB)) does the source give for `CN(C)CCCNc1nc2ccccc2c2c(=O)c3cc(Cl)ccc3sc12` [Compound N17, 10-Chloro-6-((3-(dimethylamino)propyl)amino)-12H-thiochromeno[2,3-c]quinolin-12-one] here?
Its Growth percent is 77.32%.

And the Growth percent (K-562)?
The Growth percent was 47.53%.

What about the Growth percent (MOLT-4) of the same compound?
The Growth percent was 70.71%.

What about the Growth percent (RPMI-8226) of the same compound?
Its Growth percent is 78.66%.

And the Growth percent (SR)?
The Growth percent was 48.48%.

What about the Growth percent (HOP-62) of the same compound?
The Growth percent was 86.73%.

What about the Growth percent (NCI-H226) of the same compound?
Its Growth percent is 81.01%.

And the Growth percent (NCI-H23)?
Its Growth percent is 100.25%.

What about the Growth percent (NCI-H460) of the same compound?
The Growth percent was 88.06%.

And the Growth percent (NCI-H522)?
The Growth percent was 98.76%.

What about the Growth percent (COLO 205) of the same compound?
The Growth percent was 91.35%.

And the Growth percent (HCT-116)?
Its Growth percent is 70.19%.

And the Growth percent (HT29)?
Its Growth percent is 90.98%.

What about the Growth percent (KM12) of the same compound?
Its Growth percent is 97.75%.

And the Growth percent (SW-620)?
The Growth percent was 91.74%.

What about the Growth percent (SF-268) of the same compound?
The Growth percent was 87.67%.

And the Growth percent (SNB-19)?
The Growth percent was 97.83%.

And the Growth percent (U251)?
Its Growth percent is 84.19%.

And the Growth percent (LOX IMVI)?
The Growth percent was 66.16%.

What about the Growth percent (MALME-3M) of the same compound?
Its Growth percent is 100.91%.

And the Growth percent (M14)?
The Growth percent was 103.73%.

What about the Growth percent (MDA-MB-435) of the same compound?
Its Growth percent is 93.04%.

And the Growth percent (SK-MEL-28)?
Its Growth percent is 99.63%.

And the Growth percent (SK-MEL-5)?
Its Growth percent is 91.73%.

What about the Growth percent (UACC-62) of the same compound?
Its Growth percent is 102.63%.

What about the Growth percent (OVCAR-8) of the same compound?
Its Growth percent is 98.38%.

And the Growth percent (NCI/ADR-RES)?
Its Growth percent is 96.94%.

What about the Growth percent (SK-OV-3) of the same compound?
The Growth percent was 99.91%.

And the Growth percent (786-0)?
The Growth percent was 93.30%.

What about the Growth percent (A498) of the same compound?
Its Growth percent is 78.57%.

And the Growth percent (ACHN)?
The Growth percent was 86.20%.

What about the Growth percent (RXF 393) of the same compound?
The Growth percent was 76.32%.

And the Growth percent (TK-10)?
Its Growth percent is 108.89%.

And the Growth percent (PC-3)?
Its Growth percent is 81.31%.

What about the Growth percent (MCF7) of the same compound?
Its Growth percent is 51.20%.

What about the Growth percent (MDA-MB-231/ATCC) of the same compound?
Its Growth percent is 73.39%.

And the Growth percent (T-47D)?
The Growth percent was 79.82%.

And the Growth percent (MDA-MB-486)?
The Growth percent was 43.26%.

What about the “Growth percent, Delta” value (60 cancer cell lines) of the same compound?
Its value is 44.56%.

What about the “Growth percent, Mean” value (60 cancer cell lines) of the same compound?
Its value is 85.32%.

And the “Growth percent, Range” value (60 cancer cell lines)?
The value was 68.13%.
